Results reported in US8778966B2, “Quinolinone derivatives as PARP and tank inhibitors” (Janssen Pharmaceutica, NV, priority 2007, dated 2014).

How the values were obtained:
Type in all cases: cell-based, human
[1] = test system: HCT116 cells; experiment: Antiproliferative activity, Alamar Blue assay, HCT116 cells; conditions: Homo sapiens, HCT-116, HCT116 cells, Alamar Blue; read-out: HCT116 antiproliferative activity pIC50 (converted)
Procedure, shortened: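 Readout is resazurin fluorescence (ex 540, em 590 nm) after a 4 h dye incubation at 37 °C, following 4-day compound treatment of HCT116 cells plated 24 h earlier. Results expressed as % viable cells versus untreated; pIC50 derived from probit-fitted IC50.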

[2] = test system: HCT116 cells; experiment: Mitotic arrest assay on HCT116 cells (phospho-histone H3 Ser10); conditions: Homo sapiens, HCT-116, HCT116 cells; lowest active dose; read-out: Mitotic arrest HCT116 LAD (converted)
Procedure, shortened: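 Read-out is imaging of phospho-histone H3 Ser10 (Alexa Fluor 488) with Hoechst nuclear counting, after 6 h compound exposure at 37 °C, DMSO ≤0.1%. LAD is the lowest dose at which the blank-corrected value over SD exceeds 5; triplicates, low-count wells excluded.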

[3] = test system: PC-3 cells; experiment: Antiproliferative activity, Alamar Blue assay, PC-3 cells; conditions: Homo sapiens, PC-3, PC3 cells, Alamar Blue; read-out: PC3 antiproliferative activity pIC50 (converted)
Procedure, shortened: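 Resazurin-based fluorescence (540 nm ex/590 nm em) measured after 4-day compound treatment plus 24 hrs dye incubation at 37° C. Cells plated at 4.5×10^3 cells/ml, adhered 24 hr first. pIC50 from probit-derived IC50 on % viable cells versus untreated, triplicate wells.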

IC50 [1] [µM]	IC50 [3] [µM]	SMILES	minimal effective concentration [2] [µM]
0.158	0.2	CCc1cc2ccc(C(C)(C#N)Cc3cc(Br)cc(N(C)C)c3)cc2[nH]c1=O (stereo not drawn) [Compound 260]	0.1
5.01	6.31	Cc1cc2ccc(C(C)(C#N)Cc3cccc(OCC4CCOCC4)c3)cc2[nH]c1=O (stereo not drawn) [Compound 261]	1
0.794	0.631	CCc1cc2ccc(C(C)(C#N)Cc3cc(F)ccc3F)cc2[nH]c1=O (stereo not drawn) [Compound 280]	0.3
2	1.58	CCc1cc2ccc(C(C)(C#N)Cc3ccc(F)c(F)c3)cc2[nH]c1=O (stereo not drawn) [Compound 281]	1
0.794	2	CCc1cc2ccc(C(C)(C#N)Cc3cc(C(F)(F)F)ccc3F)cc2[nH]c1=O (stereo not drawn) [Compound 283]	0.3
0.794	1.58	CCOc1cccc(CC(C)(C#N)c2ccc3cc(CC)c(=O)[nH]c3c2)c1 (stereo not drawn) [Compound 285]	0.3
5.01	2	CCc1cc2ccc(C(C)(C#N)Cc3cccc(OC)c3F)cc2[nH]c1=O (stereo not drawn) [Compound 286]	1
10	2	CCc1cc2ccc(C(C)(C#N)Cc3cc(C(C)C)ccc3OC)cc2[nH]c1=O (stereo not drawn) [Compound 288]	1
0.126	0.316	CCc1cc2ccc(C(C)(C#N)Cc3cc(OC)c(OC)c(OC)c3)cc2[nH]c1=O (stereo not drawn) [Compound 289]	0.1
0.631	0.501	CCc1cc2ccc(C(C)(C#N)CN(C)Cc3ccc(C#N)cc3)cc2[nH]c1=O (stereo not drawn) [Compound 300]	0.3
5.01	5.01	CCc1cc2ccc(C(C)(C#N)CNCc3ccc(C#N)cc3)cc2[nH]c1=O (stereo not drawn) [Compound 302]	1
0.794	3.16	Cc1cc2ccc(C(C)(C#N)Cc3cccc(Oc4ccccc4)c3)cc2[nH]c1=O (stereo not drawn) [Compound 305]	0.3
0.2	0.251	CCc1cc2ccc(C(C)(C#N)Cc3nc(C#N)cc(OC)n3)cc2[nH]c1=O (stereo not drawn) [Compound 313]	0.3
5.01	5.01	CCc1cc2ccc(C(C)(C#N)Cc3cc(N(C)C)nc(C#N)n3)cc2[nH]c1=O (stereo not drawn) [Compound 317]	1
0.631	0.631	CCc1cc2ccc(C(C)(C#N)Cc3nc(C#N)cc(N(C)C)n3)cc2[nH]c1=O (stereo not drawn) [Compound 318]	0.3
2.51	3.98	CCc1cc2ccc(C(C)(C#N)Cc3cc(C#N)nc(C)n3)cc2[nH]c1=O (stereo not drawn) [Compound 319]	0.3

IC50 [1] [µM]	IC50 [3] [µM]	SMILES	minimal effective concentration [2] [µM]
0.398	0.631	CCc1cc2ccc(C(C)(C#N)Cc3cc(N(C)C)nc(N(C)C)n3)cc2[nH]c1=O (stereo not drawn) [Compound 320]	0.3
2	2.51	CCc1cc2ccc(C(C)(C#N)Cc3cc(N(C)C)nc(C)n3)cc2[nH]c1=O (stereo not drawn) [Compound 322]	1
0.631	1	CCc1cc2ccc(C(C)(C#N)Cc3cc(Cl)nc(N(C)C)c3)cc2[nH]c1=O (stereo not drawn) [Compound 323]	0.3
2	3.16	CCc1cc2ccc(C(C)(C#N)Cc3cccc(NC)n3)cc2[nH]c1=O (stereo not drawn) [Compound 339]	1
0.398	0.501	CCc1cc2ccc(C(C)(C#N)Cc3cc(Cl)nc(OC)c3)cc2[nH]c1=O (stereo not drawn) [Compound 351]	0.1
3.16	6.31	CCc1cc2ccc(C(C)(C#N)Cc3cc(N(C)C)nc(OC)n3)cc2[nH]c1=O (stereo not drawn) [Compound 354]	1
0.2	0.398	CCc1cc2ccc(C(C)(C#N)Cc3nc(OC)cc(N(C)C)n3)cc2[nH]c1=O (stereo not drawn) [Compound 355]	0.1
0.631	0.631	CCc1cc2ccc(C(C)(C#N)Cc3cc(Cl)nc(C)n3)cc2[nH]c1=O (stereo not drawn) [Compound 365]	0.3
2	1	CCc1cc2ccc(C(C)(C#N)CN3CCC(c4ccccc4)CC3)cc2[nH]c1=O (stereo not drawn) [Compound 375]	0.3
1	0.794	CCc1cc2ccc(C(C)(C#N)CN3CCN(c4ccc(C#N)cn4)CC3)cc2[nH]c1=O (stereo not drawn) [Compound 377]	0.3
0.501	0.794	CCc1cc2ccc(C(C)(C#N)Cc3cc(Br)cc4c3OCC4)cc2[nH]c1=O (stereo not drawn) [Compound 378]	0.1
1.26	1.26	CCc1cc2ccc(C(C)(C#N)Cc3cccc4[nH]ccc34)cc2[nH]c1=O (stereo not drawn) [Compound 379]	0.3
2.51	5.01	Cc1cc2ccc([C@](C)(C#N)[C@H]3CCc4ccccc43)cc2[nH]c1=O [Compound 387]	3
0.398	0.794	Cc1cc2ccc(C(C)(C#N)C3CCc4ccccc43)cc2[nH]c1=O (stereo not drawn) [Compound 392]	0.3
1.58	3.98	Cc1cc2ccc(C(C)(C#N)C3CCCc4ccccc43)cc2[nH]c1=O (stereo not drawn) [Compound 404]	1
0.398	0.501	Cc1cc2ccc(C(C)(C#N)Cc3cccc(/C=C/CCO)c3)cc2[nH]c1=O (stereo not drawn) [Compound 409]	0.3
